Biological target: SIRT6 enzyme (Homo sapiens, UniProt Q8N6T7)
Test: Measurement of deacetylation activity (SIRT6, AlphaLISA, H3K9(Ac) peptide)
Assay type: biochemical
Conditions: SIRT6 25 ng/mL, H3K9(Ac) biotin peptide 2 nM, NAD 10 μM, room temperature 30 minutes, duplicate
Method in brief: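 SIRT6 (25 ng/mL final) in Tris-HCl pH 8.0 buffer with compound (e.g. 0.046–100 μM final) reacted with biotin-H3K9(Ac) peptide (2 nM) and NAD+ (10 μM), 30 min, room temperature. Stopped with nicotinamide plus AlphaLISA anti-unmodified H3K9/K27 beads, 60 min; EC150 (150% relative activity) from sigmoidal fit.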

Chain of SIRT6 enzyme (Q8N6T7 whole entry, species assumed): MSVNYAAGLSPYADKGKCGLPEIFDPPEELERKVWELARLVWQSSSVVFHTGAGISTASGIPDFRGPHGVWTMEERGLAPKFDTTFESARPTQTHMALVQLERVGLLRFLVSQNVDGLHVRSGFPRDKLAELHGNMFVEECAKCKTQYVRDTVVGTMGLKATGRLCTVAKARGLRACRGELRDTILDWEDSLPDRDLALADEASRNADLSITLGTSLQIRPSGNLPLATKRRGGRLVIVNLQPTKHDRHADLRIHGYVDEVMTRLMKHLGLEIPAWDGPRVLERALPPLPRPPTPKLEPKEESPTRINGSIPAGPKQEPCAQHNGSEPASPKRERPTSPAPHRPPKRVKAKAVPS

SMILES	EC150 (the concentration of the compound showing a relative enzyme activity of 150%) [μm]
C[C@H](CO)NC(=O)Nc1nc2c(s1)CN(c1nc3cc(S(C)(=O)=O)ccc3o1)C(C)(C)C2 [Example 74, N-[(2R)-1-hydroxypropan-2-yl]-N′-{5-[5-(methanesulfonyl)-1,3-benzoxazol-2-yl]-6,6-dimethyl-4,5,6,7-tetrahydro[1,3]thiazolo[5,4-c]pyridin-2-yl}urea]	0.68
CC(C)(O)CNC(=O)Nc1nc2c(s1)CN(c1nc3cc(S(C)(=O)=O)ccc3o1)C(C)(C)C2 [Example 75, N-(2-hydroxy-2-methylpropyl)-N′-{5-[5-(methanesulfonyl)-1,3-benzoxazol-2-yl]-6,6-dimethyl-4,5,6,7-tetrahydro[1,3]thiazolo[5,4-c]pyridin-2-yl}urea]	0.94
[2H]C([2H])([2H])Oc1ccc2oc(N3[C@@H]4COC[C@H]3c3sc(NC(=O)N[C@H](C)CO)nc3C4)nc2c1 [Example 76, N-[(2R)-1-hydroxypropan-2-yl]-N′-[(4S,8S)-10-{5-[(^2H3)methyloxy]-1,3-benzoxazol-2-yl}-4,7,8,9-tetrahydro-5H-4,8-epiminooxocino[5,4-d][1,3]thiazol-2-yl]urea]	1.3
[2H]C([2H])([2H])Oc1ccc2oc(N3[C@@H]4COC[C@H]3c3sc(NC(=O)N[C@@H]5CCOC5)nc3C4)nc2c1 [Example 77, N-[(4S,8S)-10-{5-[(^2H3)methyloxy]-1,3-benzoxazol-2-yl}-4,7,8,9-tetrahydro-5H-4,8-epiminooxocino[5,4-d][1,3]thiazol-2-yl]-N′-[(3R)-oxolan-3-yl]urea]	0.79
COc1cccc(-c2cnc(N3[C@@H]4COC[C@H]3c3sc(NC(=O)N[C@H]5C[C@H](O)C5)nc3C4)o2)n1 [Example 78, N-[(1r,3S)-3-hydroxycyclobutyl]-N′-{(4S,8S)-10-[5-(6-methoxypyridin-2-yl)-1,3-oxazol-2-yl]-4,7,8,9-tetrahydro-5H-4,8-epiminooxocino[5,4-d][1,3]thiazol-2-yl}urea]	0.41
CCOc1cccc(-c2cnc(N3[C@@H]4COC[C@H]3c3sc(NC(=O)NCC(C)(C)O)nc3C4)o2)n1 [Example 79, N-{(4S,8S)-10-[5-(6-ethoxypyridin-2-yl)-1,3-oxazol-2-yl]-4,7,8,9-tetrahydro-5H-4,8-epiminooxocino[5,4-d][1,3]thiazol-2-yl}-N′-(2-hydroxy-2-methylpropyl)urea]	1.2
CCOc1cccc(-c2cnc(N3[C@@H]4COC[C@H]3c3sc(NC(=O)N[C@H]5C[C@H](O)C5)nc3C4)o2)n1 [Example 80, N-{(4S,8S)-10-[5-(6-ethoxypyridin-2-yl)-1,3-oxazol-2-yl]-4,7,8,9-tetrahydro-5H-4,8-epiminooxocino[5,4-d][1,3]thiazol-2-yl}-N′-[(1r,3S)-3-hydroxycyclobutyl]urea]	0.48
C[C@H](O)CNC(=O)Nc1nc2c(s1)C1COCC(C2)N1c1nc(-c2ccc(F)cc2)no1 (stereo partly drawn) [Example 81, N-{10-[3-(4-fluorophenyl)-1,2,4-oxadiazol-5-yl]-4,7,8,9-tetrahydro-5H-4,8-epiminooxocino[5,4-d][1,3]thiazol-2-yl}-N′-[(2S)-2-hydroxypropyl]urea]	1.4
C[C@@H](O)CNC(=O)Nc1nc2c(s1)C1COCC(C2)N1c1nc(-c2ccc(F)cc2)no1 (stereo partly drawn) [Example 82, N-{10-[3-(4-fluorophenyl)-1,2,4-oxadiazol-5-yl]-4,7,8,9-tetrahydro-5H-4,8-epiminooxocino[5,4-d][1,3]thiazol-2-yl}-N′-[(2R)-2-hydroxypropyl]urea]	1.7
COc1cc(-c2noc(N3C4COCC3c3sc(NC(=O)N[C@H](C)CO)nc3C4)n2)ccc1F (stereo partly drawn) [Example 83, N-{10-[3-(4-fluoro-3-methoxyphenyl)-1,2,4-oxadiazol-5-yl]-4,7,8,9-tetrahydro-5H-4,8-epiminooxocino[5,4-d][1,3]thiazol-2-yl}-N′-[(2R)-1-hydroxypropan-2-yl]urea]	0.68
O=C(Nc1nc2c(s1)C1COCC(C2)N1c1nc(-c2ccc(F)cc2)no1)N[C@H]1C[C@H](CO)C1 (stereo partly drawn) [Example 84, N-{10-[3-(4-fluorophenyl)-1,2,4-oxadiazol-5-yl]-4,7,8,9-tetrahydro-5H-4,8-epiminooxocino[5,4-d][1,3]thiazol-2-yl}-N′-[(1r,3r)-3-(hydroxymethyl)cyclobutyl]urea]	0.62
O=C(Nc1nc2c(s1)[C@@H]1COC[C@H](C2)N1c1nc(-c2ccc(F)cc2)no1)N[C@H]1C[C@@H](O)C1 [Example 85, N-{10-[3-(4-fluorophenyl)-1,2,4-oxadiazol-5-yl]-4,7,8,9-tetrahydro-5H-4,8-epiminooxocino[5,4-d][1,3]thiazol-2-yl}-N′-[(1s,3s)-3-hydroxycyclobutyl]urea]	0.51
O=C(Nc1nc2c(s1)[C@@H]1COC[C@H](C2)N1c1nc(-c2ccc(F)cc2)no1)N[C@H]1C[C@H](O)C1 [Example 86, N-{(4S,8S)-10-[3-(4-fluorophenyl)-1,2,4-oxadiazol-5-yl]-4,7,8,9-tetrahydro-5H-4,8-epiminooxocino[5,4-d][1,3]thiazol-2-yl}-N′-[(1r,3S)-3-hydroxycyclobutyl]urea]	0.25
C[C@H](CO)NC(=O)Nc1nc2c(s1)CN(c1nc(C3CCCC(F)(F)C3)no1)CC2 (stereo partly drawn) [Example 87, N-{5-[3-(3,3-difluorocyclohexyl)-1,2,4-oxadiazol-5-yl]-4,5,6,7-tetrahydro[1,3]thiazolo[5,4-c]pyridin-2-yl}-N′-[(2R)-1-hydroxypropan-2-yl]urea]	2.1
CC(C)(O)CNC(=O)Nc1nc2c(s1)CN(c1nc(C3CCC(F)(F)CC3)no1)CC2 [Example 88, N-{5-[3-(4,4-difluorocyclohexyl)-1,2,4-oxadiazol-5-yl]-4,5,6,7-tetrahydro[1,3]thiazolo[5,4-c]pyridin-2-yl}-N′-(2-hydroxy-2-methylpropyl)urea]	1.1
CC(OCC(F)(F)F)c1noc(N2CCc3nc(NC(=O)N[C@H](C)CO)sc3C2)n1 (stereo partly drawn) [Example 89, N-[(2R)-1-hydroxypropan-2-yl]-N′-(5-{3-[1-(2,2,2-trifluoroethoxy)ethyl]-1,2,4-oxadiazol-5-yl}-4,5,6,7-tetrahydro[1,3]thiazolo[5,4-c]pyridin-2-yl)urea]	2.9
CC(C)(CO)NC(=O)Nc1nc2c(s1)[C@@H]1COC[C@H](C2)N1c1nc(-c2ccc(F)cc2)no1 [Example 90, N-{(4S,8S)-10-[3-(4-fluorophenyl)-1,2,4-oxadiazol-5-yl]-4,7,8,9-tetrahydro-5H-4,8-epiminooxocino[5,4-d][1,3]thiazol-2-yl}-N′-(1-hydroxy-2-methylpropan-2-yl)urea]	2.5
C[C@H](CO)NC(=O)Nc1nc2c(s1)CN(c1nc(C(C)(C)OCC(F)(F)F)no1)CC2 [Example 91, N-[(2R)-1-hydroxypropan-2-yl]-N′-(5-{3-[2-(2,2,2-trifluoroethoxy)propan-2-yl]-1,2,4-oxadiazol-5-yl}-4,5,6,7-tetrahydro[1,3]thiazolo[5,4-c]pyridin-2-yl)urea]	0.81
CC(C)(O)CNC(=O)Nc1nc2c(s1)CN(c1nc(C3(C(F)(F)F)CC3)no1)CC2 [Example 92, N-(2-hydroxy-2-methylpropyl)-N′-(5-{3-[1-(trifluoromethyl)cyclopropyl]-1,2,4-oxadiazol-5-yl}-4,5,6,7-tetrahydro[1,3]thiazolo[5,4-c]pyridin-2-yl)urea]	3.5
CNC(=O)Nc1nc2c(s1)CN(c1nc(C34CCC(F)(CC3)C4)no1)CC2 [Example 93, N-{5-[3-(4-fluorobicyclo[2.2.1]heptan-1-yl)-1,2,4-oxadiazol-5-yl]-4,5,6,7-tetrahydro[1,3]thiazolo[5,4-c]pyridin-2-yl}-N′-methylurea]	0.7
CC(C)(O)CNC(=O)Nc1nc2c(s1)CN(c1nc(C3CCC(F)(F)C3)no1)CC2 (stereo not drawn) [Example 94, N-{5-[3-(3,3-difluorocyclopentyl)-1,2,4-oxadiazol-5-yl]-4,5,6,7-tetrahydro[1,3]thiazolo[5,4-c]pyridin-2-yl}-N′-(2-hydroxy-2-methylpropyl)urea]	1.6
O=C(Nc1nc2c(s1)CN(c1nc(C3CC(F)(F)CCO3)no1)CC2)N[C@@H]1CCOC1 (stereo partly drawn) [Example 95, N-{5-[3-(4,4-difluorooxan-2-yl)-1,2,4-oxadiazol-5-yl]-4,5,6,7-tetrahydro[1,3]thiazolo[5,4-c]pyridin-2-yl}-N′-[(3R)-oxolan-3-yl]urea]	2.2
CC(C)(O)CNC(=O)Nc1nc2c(s1)CN(c1nc(C34CC(C(F)F)(C3)C4)no1)CC2 [Example 96, N-(5-{3-[3-(difluoromethyl)bicyclo[1.1.1]pentan-1-yl]-1,2,4-oxadiazol-5-yl}-4,5,6,7-tetrahydro[1,3]thiazolo[5,4-c]pyridin-2-yl)-N′-(2-hydroxy-2-methylpropyl)urea]	1.6
O=C(Nc1nc2c(s1)CN(c1nc(C3(C(F)(F)F)CC3)no1)CC2)N[C@H]1C[C@H](O)C1 [Example 97, N-[(1r,3r)-3-hydroxycyclobutyl]-N′-(5-{3-[1-(trifluoromethyl)cyclopropyl]-1,2,4-oxadiazol-5-yl}-4,5,6,7-tetrahydro[1,3]thiazolo[5,4-c]pyridin-2-yl)urea]	1.3

Reference: patent US11981686B2, “Urea compound having substituent” (DAIICHI SANKYO COMPANY, LIMITED, priority 2019, dated 2024)
